{"source": "patent US10556860B2", "about": "“hTERT modulators and methods of use” (Arizona Board of Regents on Behalf of the University of …, priority 2015, dated 2020)", "key": {"[1]": {"system": "G138/139A mutant hTERT G-quadruplex", "assay": "CD melting (Tm), G138/139A mutant", "type": "binding, human", "details": "2 equiv", "protocol": "Circular dichroism. Oligomers of WT, G124A, G124/125A, G138/139A and G146A were synthesized and HPSF-purified by MGW Operon, Inc. For CD analysis, oligomers (5 μM) in a buffer containing 10 mM Tris-HCl (pH 7.5) and 140 mM KCl were annealed. For the CD analysis of the complex of oligomers and compounds, oligomers (5 μM) in a buffer containing 10 mM Tris-HCl (pH 7.5) and 5 mM KCl for GTC365 or 1 mM KCl for BRACO-19 were annealed. Oligomers and GTC365 or BRACO-19 were incubated overnight at room temperature. For the full-length of C-rich strand, the oligomer in a buffer of 10 mM Na cacodylate (pH 6.6) was annealed and then incubated with GTC365 overnight. CD analysis was conducted on a Jasco 810 spectropolarimeter (Jasco, Easton, Md.) using a quartz cell with 1 mm of path length, 1 nm of band width, and 1 s of response time for spectra at 20° C. Melting curves for the determination of Tm were obtained by recording ellipticity at 262 nm with increasing temperatures from 25° C. to 95° C. at a rate of 1.6° C./min. Tm of the C-rich strand with GTC365 was obtained from the CD signal at 286 nm within 10-60° C.\nCD and DMS footprinting analyses were conducted to characterize the binding of GTC365 and BRACO-19 to the 5-12 G-quadruplex. […] To verify the effects of compounds on the thermal stability of the WT and the mutant G-quadruplexes, Tms were determined by CD. […]"}, "[2]": {"system": "hTERT under the control of the CMV promoter", "assay": "hTERT transcription in MCF7 cells overexpressing hTERT under CMV promoter", "type": "cell-based, human", "details": "MCF7 cell line transfected with plasmid overexpressing hTERT (CMV promoter)", "protocol": "qPCR. MCF7 and melanoma cells were treated with GTC365 and BRACO-19 for 72 h. Total RNA was extracted using an RNeasy mini-prep kit (Qiagen) and quantitated by measuring absorbance at 260 nm. cDNA was synthesized using a Takara PrimeScript™ RT Reagent Kit with gDNA eraser and then used as a template for qPCR. The qPCR was performed using Kapa Probe Fast qPCR Master Mix with ABI Taqman probes of hTERT (Hs00972656_m1), BCL2 (HS00608023_m1, FAM-labeled) or MYC (Hs00153408_m1), and GAPDH (Hs02758991_g1, VIC-labeled). The Ct values were measured by running Rotor-Gene Q, and the relative quantity of hTERT, BCL2, and MYC mRNA was obtained compared to GAPDH as an internal control.\nEstablishment of stable cell lines overexpressing hTERT. The pCDNA-3XHA-hTERT plasmid containing hTERT driven by theCMV promoter was obtained from Addgene (ID: 51637) deposited by Dr. Steven Artandi. MCF7 cells in a 24-well plate were transfected with this plasmid (250 ng) using FuGENE HD transfection reagent for24 h. Cells were treated with several concentrations of G418 (0.1-1 mg/mL) and an antibiotic for colony selection for 4 weeks, and thenone colony was selected for further culture. […]"}, "[3]": {"system": "UACC-903, a G124A mutant melanoma cell line", "assay": "Viability of G124A mutant melanoma cells", "type": "cell-based, human", "details": "72 h", "protocol": "FIGS. 13A-13C are a set of graphs showingselective reduction in viability (A) and hTERT expression (B) in melanoma cells carrying hTERT core promotor mutations. NHM-002 (normal human melanocytes) and a G124A mutant cell line were treated with vehicle, 1.25, 2.5, and 5 μM GTC365 for 72 h. Viability was reduced in hTERT mutant melanoma cells by 50% (left). […] (C) Differential response to GTC365 in WT and promoter mutant cell lines.\nNext, to assess the selectivity of GTC365 for hTERT-dependent cancer cells relative to normal precursorcells, we compared the effects of a range of […] on viability at 72 h in normal humanmelanocytes (NHM-002) relative to those of UACC-903, aG124A mutant (FIG. 13A). […] To confirm that the reduction in cell viability was aresult of hTERT downregulation, we performed reverse transcription and qPCR to measure the mRNA level of hTERT expression in cells treated with DMSO or 5 μMGTC365. hTERT expression was reduced by 41% in themelanoma cell line after 72 h but was undetectable in normalmelanocytes, even in the absence of GTC365 (FIG. 13B). Finally, tobroadly assess the selectivity of GTC365 for hTERT promotermutant versus WT cells, we conducted a 6-point 72 h MTSproliferation assay to determine EC50s in 14 additional melanoma cell lines with characterized TERT promoter status([…]) (FIG. 13C). […]"}, "MCF7 cells": {"system": "MCF7 cells", "assay": "Senescence β-galactosidase assay", "type": "cell-based, human", "details": "0.5 μM, 5-10 days", "protocol": "Senescence β-galactosidase assay. A colorimetric β-galactosidase assay was performed. Briefly, compound-treated MCF7 cells were fixed in 2% formaldehyde and 0.2% glutaraldehyde for 5 min at room temperature. Fixed cells were incubated with staining solution containing 40 mM citric acid (pH 6.0), 5 mM potassium ferrocyanide, 5 mM potassium ferricyanide, 150 mM NaCl, and 2 mM MgCl2 and 1 mg/ml X-gal (Fermentas R0401) for 7 h at 37° C. Stained cells were washed with D-PBS and methanol and subsequently dried in air.\nSince senescence is one of the outcomes resulting from loss of telomere length, this was measured by the associated overexpression of lysosomal β-galactosidase, which releases indigo (blue dye) from X-gal. In addition, the cell morphology will also be dramatically changed so that cells appear to be flat and enlarged. […] Abnormal phenotypes such as bridges connecting two adjacent cells and multinucleated cells were also observed in GTC365-treated cells. hTERT is known to localize to mitotic spindles and centromeres and regulate the expression of genes involved in heterochromatin maintenance. In addition, there is alteration of expression of some proteins involved in collagen synthesis or tubulin organization by hTERT transfection."}}, "data": [{"smiles": "N=C(N)NCCCS(=O)(=O)Nc1ccc(Nc2c3ccccc3nc3cc([N+](=O)[O-])ccc23)cc1", "note": "[GTC365]", "values": [{"measurement": "Tm more increased compared to the WT", "setting": "[1]", "value": "6-7 °C"}, {"measurement": "effect on hTERT transcription", "setting": "[2]", "value": "no effect"}, {"measurement": "viability", "setting": "[3]; 5 μM", "value": "below 50%"}, {"measurement": "reduction of viability", "setting": "[3]; hTERT mutant melanoma cells, up to 5 μM", "value": 50, "unit": "%"}, {"measurement": "senescence-like phenotype (β-galactosidase staining, morphology)", "setting": "MCF7 cells", "value": "distinct senescence-like phenotype (SLP)"}]}]}
